Experimental data taken from article PMC10938783, “A novel pan-PI3K inhibitor KTC1101 synergizes with anti-PD-1 therapy by targeting tumor suppression and immune activation” (Molecular Cancer, 2024).

Experiments:
B16 cells = test: Cell proliferation MTT assay; type: cell-based, mouse; settings: B16 cells in vitro, 48 h
Procedure: (§1) Cell proliferation was measured by MTT assay as previously described. The cells were seeded in a volume of 200 μL/well in 96-well plates. The next day, cells were treated with DMSO or a series of concentrations of KTC1101. After a 48-h incubation period, 20 μL of MTT (5 mg/mL) was added to each well. After further incubation for 4 h at 37 °C, the absorbance at 490 nm was measured using an iMark microplate reader (BIO-RAD, Hercules, CA, USA).

S24 cells = test: Cell proliferation MTT assay; type: cell-based, mouse; settings: 48 h
Procedure: as §1

MKN45 = test: JFCR39 sulforhodamine B growth assay; type: cell-based; settings: Homo sapiens, MKN-45; MKN45, 48 h
Procedure: (§2) JFCR39 drug discovery system was used to measure the growth inhibitory activities and identify the target of KTC1101. The JFCR39 panel consists of 39 cell lines seeded in 96-well plates. After 48-h treatment with KTC1101, cell growth was measured using the sulforhodamine B assay. […] The deviation of log GI50 for each cell line from the average log GI50 across the JFCR39 panel was plotted as a fingerprint. MG-MID (mean of Log GI50 values) represents the average log GI50 for all 39 cell lines. The most sensitive and least sensitive cell lines were identified by calculating the difference in their log GI50 values (Range) and the difference between the most sensitive cell line and the average GI50 on the JFCR39 panel (Delta). The fingerprint of KTC1101 was compared with the fingerprints of reference compounds in the database. The Pearson correlation coefficient (r) was calculated (n = 39).

A549 = test: JFCR39 sulforhodamine B growth assay; type: cell-based; settings: Homo sapiens, A549, 48 h
Procedure: as §2

SK-OV-3 = test: JFCR39 sulforhodamine B growth assay; type: cell-based; settings: Homo sapiens, SK-OV-3, 48 h
Procedure: as §2

HCT-116 = test: JFCR39 sulforhodamine B growth assay; type: cell-based; settings: Homo sapiens, HCT-116, 48 h
Procedure: as §2

MDA-MB-231 = test: JFCR39 sulforhodamine B growth assay; type: cell-based; settings: Homo sapiens, MDA-MB-231, 48 h
Procedure: as §2

MKN-B = test: JFCR39 sulforhodamine B growth assay; type: cell-based; settings: Homo sapiens, 48 h
Procedure: as §2

OVCAR-8 = test: JFCR39 sulforhodamine B growth assay; type: cell-based; settings: Homo sapiens, OVCAR-8, 48 h
Procedure: as §2

RXF-631L = test: JFCR39 sulforhodamine B growth assay; type: cell-based; settings: Homo sapiens, 48 h
Procedure: as §2

MCF-7 = test: JFCR39 sulforhodamine B growth assay; type: cell-based; settings: Homo sapiens, MCF7; MCF-7, 48 h
Procedure: as §2

OVCAR-4 = test: JFCR39 sulforhodamine B growth assay; type: cell-based; settings: Homo sapiens, OVCAR-4, 48 h
Procedure: as §2

NCI-H23 = test: JFCR39 sulforhodamine B growth assay; type: cell-based; settings: Homo sapiens, NCI-H23, 48 h
Procedure: as §2

SF-539 = test: JFCR39 sulforhodamine B growth assay; type: cell-based; settings: Homo sapiens, SF-539, 48 h
Procedure: as §2

HBC-4 = test: JFCR39 sulforhodamine B growth assay; type: cell-based; settings: Homo sapiens, HBC4; HBC-4, 48 h
Procedure: as §2

U251 = test: JFCR39 sulforhodamine B growth assay; type: cell-based; settings: Homo sapiens, U-251; U251, 48 h
Procedure: as §2

OVCAR-5 = test: JFCR39 sulforhodamine B growth assay; type: cell-based; settings: Homo sapiens, OVCAR-5, 48 h
Procedure: as §2

MKN74 = test: JFCR39 sulforhodamine B growth assay; type: cell-based; settings: Homo sapiens, MKN-74; MKN74, 48 h
Procedure: as §2

OVCAR-3 = test: JFCR39 sulforhodamine B growth assay; type: cell-based; settings: Homo sapiens, OVCAR-3, 48 h
Procedure: as §2

MKN-A = test: JFCR39 sulforhodamine B growth assay; type: cell-based; settings: Homo sapiens, 48 h
Procedure: as §2

HCT-15 = test: JFCR39 sulforhodamine B growth assay; type: cell-based; settings: Homo sapiens, HCT-15, 48 h
Procedure: as §2

MKN1 = test: JFCR39 sulforhodamine B growth assay; type: cell-based; settings: Homo sapiens, MKN-1; MKN1, 48 h
Procedure: as §2

SF-295 = test: JFCR39 sulforhodamine B growth assay; type: cell-based; settings: Homo sapiens, SF-295, 48 h
Procedure: as §2

DMS273 = test: JFCR39 sulforhodamine B growth assay; type: cell-based; settings: Homo sapiens, DMS-273; DMS273, 48 h
Procedure: as §2

SNB-78 = test: JFCR39 sulforhodamine B growth assay; type: cell-based; settings: Homo sapiens, SNB-78, 48 h
Procedure: as §2

HBC-5 = test: JFCR39 sulforhodamine B growth assay; type: cell-based; settings: Homo sapiens, HBC5; HBC-5, 48 h
Procedure: as §2

ACHN = test: JFCR39 sulforhodamine B growth assay; type: cell-based; settings: Homo sapiens, 48 h
Procedure: as §2

HT-29 = test: JFCR39 sulforhodamine B growth assay; type: cell-based; settings: Homo sapiens, HT-29, 48 h
Procedure: as §2

DMS114 = test: JFCR39 sulforhodamine B growth assay; type: cell-based; settings: Homo sapiens, DMS-114; DMS114, 48 h
Procedure: as §2

BSY-1 = test: JFCR39 sulforhodamine B growth assay; type: cell-based; settings: Homo sapiens, BSY-1, 48 h
Procedure: as §2

HCC2998 = test: JFCR39 sulforhodamine B growth assay; type: cell-based; settings: Homo sapiens, HCC 2998; HCC2998, 48 h
Procedure: as §2

PC-3 = test: JFCR39 sulforhodamine B growth assay; type: cell-based; settings: Homo sapiens, PC-3, 48 h
Procedure: as §2

NCI-H460 = test: JFCR39 sulforhodamine B growth assay; type: cell-based; settings: Homo sapiens, NCI-H460, 48 h
Procedure: as §2

SF-268 = test: JFCR39 sulforhodamine B growth assay; type: cell-based; settings: Homo sapiens, SF-268, 48 h
Procedure: as §2

KM-12 = test: JFCR39 sulforhodamine B growth assay; type: cell-based; settings: Homo sapiens, KM12; KM-12, 48 h
Procedure: as §2

St-4 = test: JFCR39 sulforhodamine B growth assay; type: cell-based; settings: Homo sapiens, St-4, 48 h
Procedure: as §2

DU-145 = test: JFCR39 sulforhodamine B growth assay; type: cell-based; settings: Homo sapiens, DU-145, 48 h
Procedure: as §2

COc1cc(N)cc2c1nc(C(F)F)n2-c1nc(N2CCCOCC2)nc(N2CCOCC2)n1 [KTC1101, 2-(difluoromethyl)-4-methoxy-1-(4-morpholino-6-(1,4-oxazepan-4-yl)-1,3,5-triazin-2-yl)-1H-benzo[d]imidazol-6-amine]
anti-proliferative activity (B16 cells): strong anti-proliferative activity | sensitivity in vitro (S24 cells): showed sensitivity | GI50 (MKN45): 162 nM | GI50 (A549): 21.9 nM | GI50 (SK-OV-3): 12.9 nM | GI50 (HCT-116): 31.6 nM | GI50 (MDA-MB-231): 30.2 nM | GI50 (MKN-B): 28.8 nM | GI50 (OVCAR-8): 30.9 nM | GI50 (RXF-631L): 15.5 nM | GI50 (MCF-7): 10 nM | GI50 (OVCAR-4): 61.7 nM | GI50 (NCI-H23): 25.7 nM | GI50 (SF-539): 10 nM | GI50 (HBC-4): 24.5 nM | GI50 (U251): 38 nM | GI50 (OVCAR-5): 23.4 nM | GI50 (MKN74): 70.8 nM | GI50 (OVCAR-3): 15.8 nM | GI50 (MKN-A): 145 nM | GI50 (HCT-15): 17.8 nM | GI50 (MKN1): 10 nM | GI50 (SF-295): 14.8 nM | GI50 (DMS273): 11 nM | GI50 (SNB-78): 22.9 nM | GI50 (HBC-5): 14.5 nM | GI50 (ACHN): 21.4 nM | GI50 (HT-29): 61.7 nM | GI50 (DMS114): 10 nM | GI50 (BSY-1): 10 nM | GI50 (HCC2998): 36.3 nM | GI50 (PC-3): 15.8 nM | GI50 (NCI-H460): 10 nM | GI50 (SF-268): 18.2 nM | GI50 (KM-12): 178 nM | GI50 (St-4): 105 nM | GI50 (DU-145): 23.4 nM
